Measured values taken from US20060211705A1, “'N-(2-chloro-6-methylphenyl)-2-[[6-[4-(2-hydroxyethyl)-1-piperazinyl]-2-methyl-4-pyrimidinyl]amino]-5-thiazolecarboxamides metabolites” (priority 2005, published 2006).

Test: Metabolite profile of [14C] compound (I) in monkey liver microsome incubations
Assay type: in vitro ADME, cynomolgus monkey
Conditions: (Ia) 20 μM, 15 min, 37° C., 2 mg/mL microsomal protein, 2.0 mM NADPH
Method: The compound of formula (I) was used as the [^14C] compound (Ia) (30.4 μCi/mg, radiochemical purity 99.2%), as the monohydrate of the free base. The C-14 label was on the carbon in the 2-position of the thiazole ring.
Freshly isolated rat hepatocyte preparations were prepared from one male Sprague-Dawley rat. Rat Hepatocytes were prepared according to a standard procedure (Seglen, PO. Preparation of isolated rat liver cells. Methods Cell Biol., 1976, 13: 29-83). Cryopreserved cynomolgus monkey hepatocytes (male, pooled, n=6) and human hepatocytes (3 individual preparation) were purchased from In Vitro Technologies (Baltimore, Md.). Microsomes from male SD Rats (pooled, n=200, 20 mg/mL) and male cynomolgus monkeys (pooled, n=8, 20 mg/mL) were obtained from Xenotech LLC, Kansas City, Kans. Human liver microsomes (male, pooled, n=38) were from BD-Gentest, Woburn, Mass.
A 6 mM stock solution of the compound of formula (Ia) (the [^14C] of the compound of formula (I) was prepared at by dissolving 3.7 mg of the compound of formula (Ia) into 1:1 acetonitrile/DMSO. The 2 mM stock solution of the compound of formula (Ia) was obtained by diluting an aliquot of the 6 mM stock solution 3-fold with acetonitrile.
Hepatocyte incubations were conducted at 37° C. for 3 h in a NAPCO CO2 6000 incubator (VWR Scientific Products) under a 5% CO2 atmosphere using an orbital shaker at 90 rpm. For each incubation, the final concentration of compound (Ia) was 20 μM and the hepatocyte concentrations were ˜2 million cells/mL. A control incubation, in the absence of hepatocytes, was also performed for 3 h. The incubations were stopped by adding one volume of ice-cold acetonitrile. Each 0.5 mL incubation contained 0.1 M potassium phosphate buffer (pH 7.4), 2.5 mM MgCl2, 2 mg/mL microsomal protein, and 2.0 mM NADPH. The final substrate concentration was 20 μM. The mixtures were incubated in a shaking water bath at 37° C. for 15 min. Control incubations in the absence of microsomes or NADPH were performed for each species. The reactions were stopped with the addition of 1 mL of ice-cold acetonitrile.
HPLC was performed on a Waters Alliance™ system equipped with Waters 2695 pumps and a photodiode array detector (Waters 2996). A Phenomenex Synergy Polar-RP® column (4.6×250 mm, 5 micron) was used for metabolite separation. All HPLC analyses were performed at 1 mL/min flow rate at room temperature. Two HPLC mobile phase and gradient systems were used because all metabolites could not be completely separated on either of the individual HPLC systems. The first system consisted of (A) water with 0.1% formic acid and (B) acetonitrile with 0.1% formic acid as mobile phase. The linear gradient was as follows: 0 min, 20% B; 1 min, 20% B; 41 min, 35% B; 42 min, 90% B; 44 min, 90% B. The column was re-equilibrated at 20% B for 6 min before the next injection. The second HPLC system was used to separate certain co-eluting metabolites that could not be separated by the first system. The mobile phase consisted of (A) water with 0.1% triflouroacetic acid (TFA) and (B) acetonitrile with 0.1% TFA. The gradient was as follows: 0 min, 20% B; 1 min, 20% B; 51 min, 35% B; 52 min, 90% B; 54 min 90% B. The column was equilibrated at 20% B for 6 min prior to the next injection.
On-line radioactivity detection (RAD) was conducted using an INUS β-RAM detector (Model 3, INUS, Tampa, Fla.). The β-RAM was operated with a 500 μL liquid flow cell in the homogeneous liquid scintillation counting mode. A flow rate of 2 mL/min of scintillation cocktail was mixed with the HPLC effluent. The effluent from HPLC was split to the β-RAM detector (90%) and the mass spectrometer (10%) by adjusting the length and diameter of post column tubings. The β-RAM detector provided integrated output detailing the percentage and amount of radioactivity under each radioactive peak.
Hepatocyte and liver microsomal incubations were quenched with acetonitrile and were vortex-mixed for 3 min. […]

| Structure (SMILES) | % of Radioactivity in Microsomes, Monkey [%] |
| --- | --- |
| Cc1nc(Nc2ncc(C(=O)Nc3c(C)cccc3Cl)s2)cc(N2CCNCC2)n1 [M4 (II)] | 5.8 |
| Cc1nc(Nc2ncc(C(=O)Nc3c(C)cc(O)cc3Cl)s2)cc(N2CCN(CCO)CC2)n1 [M20 (V)] | 30.0 |

Further lines, results first:

| % of Radioactivity in Microsomes, Monkey [%] | Structure (SMILES) |
| --- | --- |
| 8.6 | Cc1nc(Nc2ncc(C(=O)Nc3c(C)cccc3Cl)s2)cc(N2CC[N+]([O-])(CCO)CC2)n1 [M5 (III)] |
| 2.1 | Cc1nc(Nc2ncc(C(=O)Nc3c(C)cccc3Cl)s2)cc(N2CCN(CC(=O)O)CC2)n1 [M6 (IV), 2-(4-(6-(5-((2-Chloro-6-methylphenyl)carbamoyl)thiazol-2-ylamino)-2-methylpyrimidin-4-yl)piperazin-1-yl)acetic acid] |
| 30.0 | Cc1nc(Nc2ncc(C(=O)Nc3c(Cl)cccc3CO)s2)cc(N2CCN(CCO)CC2)n1 [M24 (VI), N-(2-chloro-6-(hydroxymethyl)phenyl)-2-(6-(4-(2-hydroxyethyl)piperazin-1-yl)-2-methylpyrimidin-4-ylamino)thiazole-5-carboxamide] |
| 27.7 | Cc1nc(Nc2ncc(C(=O)Nc3c(C)cccc3Cl)s2)cc(N2CCN(CCO)CC2)n1 [Parent (I), N-(2-Chloro-6-methylphenyl)-2-[[6-[4-(2-hydroxyethyl)-1-piperazinyl]-2-methyl-4-pyrimidinyl]amino]-5-thiazolecarboxamide] |
